# Data published in ChEMBL document CHEMBL3046853, “Synthesis, antimicrobial evaluation, ot-QSAR and mt-QSAR studies of 2-amino benzoic acid derivatives” (2012).
# Calls of active or inactive are those of the source. No cut-off for these calls is given here.
# Assays:
# [1] = tested on: Aspergillus niger; assay: Fungicidal activity against Aspergillus niger after 7 days by serial dilution technique; format: functional, organism-based
# [2] = tested on: Candida albicans; assay: Fungicidal activity against Candida albicans; format: functional, organism-based
# [3] = tested on: Escherichia coli; assay: Bactericidal activity against Escherichia coli; format: functional, organism-based
# [4] = tested on: Bacillus subtilis; assay: Bactericidal activity against Bacillus subtilis; format: functional, organism-based
# [5] = tested on: Staphylococcus aureus; assay: Bactericidal activity against Staphylococcus aureus; format: functional, organism-based
# [6] = tested on: Candida albicans; assay: Antifungal activity against Candida albicans after 2 days by serial dilution technique; format: functional
# [7] = tested on: Aspergillus niger; assay: Antifungal activity against Aspergillus niger after 7 days by serial dilution technique; format: functional
# [8] = tested on: Escherichia coli; assay: Antibacterial activity against Escherichia coli after 24 hr by serial dilution technique; format: functional
# [9] = tested on: Bacillus subtilis; assay: Antibacterial activity against Bacillus subtilis after 24 hr by serial dilution technique; format: functional
# [10] = tested on: Staphylococcus aureus; assay: Antibacterial activity against Staphylococcus aureus after 24 hr by serial dilution technique; format: functional
smiles,measurement,setting,value
Nc1ccccc1C(=O)Nc1ccccc1F,Activity,[1],Active
same,Activity,[2],Active
same,Activity,[3],Active
same,Activity,[4],Active
same,Activity,[5],Active
same,-logMIC,[6],1.27
same,-logMIC,[7],1.27
same,-logMIC,[8],1.27
same,-logMIC,[9],2.17
same,-logMIC,[10],1.27
